# Starred links: 1 amine or outer side, 2 acyl side, 3 side chain; linkers in the order of their positions; H or OH if unused. Non-standard residues stand in square brackets, D forms with d. Residues, ends and D or L forms follow the SMILES beside them. X1 = CC[C@@H](C)[C@@H](O[*:1])C(=O)[*:2]; NMeVal(β-OH) = CN[C@H](C(=O)O)C(C)(C)O; NMeF = CN[C@@H](Cc1ccccc1)C(=O)O; NMeV = CN[C@H](C(=O)O)C(C)C
# System: Toxoplasma gondii
# Test: Antiparasitic activity against Toxoplasma gondii assessed as parasitic growth inhibition
# Format: functional, organism-based
row,SMILES,IC50
1,O=C(NNC(=S)Nc1ccc(F)cc1)c1cccs1,33.2 µM
2,C/C=C/C1=C(O)C(=O)c2ccccc2C1=O,3.01 µM
3,O=C1C2=C(C(=O)c3ccccc31)[C@H]1Oc3ccc(Cl)cc3[C@H]1CO2,< 10 µM
4,O=C1C2=C(C(=O)c3ccccc31)[C@H]1Oc3ccc(Br)cc3[C@H]1CO2,2.6 µM
5,CC(C)CCCc1ccc2c(c1)C(=O)C=C(N1CCCC1)C2=O,0.32 µM
6,O=C1C(O)=C([C@H]2CC[C@H](c3ccc(Cl)cc3)CC2)C(=O)c2ccccc21 [ATOVAQUONE],0.07 µM
7,COc1c(N2CCNC(C)C2)c(F)cc2c(=O)c(C(=O)O)cn(C3CC3)c12 (stereo not given) [GATIFLOXACIN],4.1 µg/mL
8,Cc1c(F)c(N2CCNC(C)C2)cc2c1c(=O)c(C(=O)O)cn2C1CC1 (stereo not given) [GREPAFLOXACIN],2.4 µg/mL
9,CC(C)=CCC1=C(O)C(=O)c2ccccc2C1=O [LAPACHOL],4.88 µM
10,COc1c(N2C[C@@H]3CCCN[C@@H]3C2)c(F)cc2c(=O)c(C(=O)O)cn(C3CC3)c12 [MOXIFLOXACIN],5.1 µg/mL
11,O=C1C2=C(C(=O)c3ccccc31)[C@H]1Oc3ccccc3[C@H]1CO2 [PTEROCARPANQUINONE],2.5 µM
12,N[C@@H]1[C@H]2CN(c3nc4c(cc3F)c(=O)c(C(=O)O)cn4-c3ccc(F)cc3F)C[C@@H]12 [TROVAFLOXACIN],0.4 µg/mL

# System: Toxoplasma gondii
# Test: Antiparasitic activity against Toxoplasma gondii
# Format: functional, organism-based
row,SMILES,IC50
1,COc1cc(/C=C/C(=O)C(=Cc2ccc(F)c(F)c2)C(=O)/C=C/c2ccc(O)c(OC)c2)ccc1O,0.8 µM
2,CCCCCCCCCCCCCCCCC1(C)SC(=O)C(CCC)=C1O (stereo not given),2 µM
3,CCCCCCCCCCCCCCCCC1(C)SC(=O)C(Cc2ccccc2)=C1O (stereo not given),6 µM
4,COc1cc(C2c3cc(c(O)cc3O)C(c3ccc(O)c(OC)c3)c3cc(c(O)cc3O)C(c3ccc(O)c(OC)c3)c3cc(c(O)cc3O)C(c3ccc(O)c(OC)c3)c3cc2c(O)cc3O)ccc1O (stereo not given),> 2000 µg/mL
5,COc1ccc(/C=C/C(=O)C(=Cc2ccc(F)c(F)c2)C(=O)/C=C/c2ccc(OC)c(OC)c2)cc1OC,0.33 µM
6,COc1cc(/C=C/C(=O)CC(=O)/C=C/c2ccc(O)c(OC)c2)ccc1O [CURCUMIN],38.3 µM
7,CC(C)=CCC/C(C)=C/CO [GERANIOL],4 µg/mL
8,Oc1ccc(/C=C/c2cc(O)cc(O)c2)cc1 [RESVERATROL],54.6 µM
9,Oc1cc(Cl)ccc1Oc1ccc(Cl)cc1Cl [TRICLOSAN],3 µM
10,COc1cc(C=O)ccc1O [VANILLIN],645 µg/mL

# System: Toxoplasma gondii
# Test: Antiparasitic activity against Toxoplasma gondii RH infected in human HFF cells
# Format: functional, organism-based
row,SMILES,IC50
1,CC1=C(c2nccs2)O[C@@H]2O[C@@]3(C)CC[C@H]4[C@H](C)CC[C@@H]1[C@@]24OO3,1 µM
2,CCCCCCCCCCCCc1c(C)n(O)c2ccccc2c1=O,0.0008 µM
3,C=C(C)C1CC=C(C)CC1 (stereo not given),241 µg/mL
4,Cc1[nH]c2cc(F)cc(F)c2c(=O)c1-c1ccc(Oc2ccc(OC(F)(F)F)cc2)cc1,0.005 µM
5,CC1=CCC(C(C)(C)O)CC1 (stereo not given),4.4 µg/mL
6,C/C=C/C1=C(O)C(=O)c2ccccc2C1=O,3.01 µM
7,O=C1C2=C(C(=O)c3ccccc31)[C@H]1Oc3ccc(Cl)cc3[C@H]1CO2,< 1 µM
8,O=C1C2=C(C(=O)c3ccccc31)[C@H]1Oc3ccc(Br)cc3[C@H]1CO2,2.6 µM
9,Cc1[nH]c2c(c(=O)c1-c1ccc(Oc3ccc(OC(F)(F)F)cc3)cc1)CCCC2,0.00012 µM
10,CC(C)CCCc1ccc2c(c1)C(=O)C=C(N1CCCC1)C2=O,0.32 µM
11,Cc1nc[nH]c1-c1nnc(Nc2ccc(I)cc2)s1,4.76 µg/mL
12,CC(C)=CCC/C(C)=C\C=O,24 µg/mL
13,COC(=O)C1C(C)=CCCC1(C)C (stereo not given),242 µg/mL
14,C/C(=N\Nc1nc(-c2ccc([N+](=O)[O-])cc2)cs1)c1ccc(Nc2nc(N)nc(N)n2)cc1,14.9 µg/mL
15,COC(=O)Cn1c(C(=O)NS(=O)(=O)C2=Cc3ccccc3C2)cc2cc(OC)ccc21,0.13 µM
16,C[C@@H]1CC[C@H]2[C@@H](C)C(=O)O[C@@H]3O[C@@]4(C)CC[C@@H]1[C@]32OO4 [ARTEMISININ],1.7 µM
17,C=C(C)C1CC=C(C)C(=O)C1 (stereo not given) [CARVONE],16.1 µg/mL
18,CCCCCCCCCCCCc1c(C)c(=O)c2ccccc2n1O [COMPOUND A],0.0004 µM
19,CC(C)=CCC1=C(O)C(=O)c2ccccc2C1=O [LAPACHOL],0.4 µg/mL
20,C=CC(C)(O)CCC=C(C)C (stereo not given) [LINALOOL],4.48 µg/mL
21,Oc1ccccc1 [PHENOL],4.77 µg/mL
22,O=C1C2=C(C(=O)c3ccccc31)[C@H]1Oc3ccccc3[C@H]1CO2 [PTEROCARPANQUINONE],2.5 µM

# Biological target: T1, Bifunctional dihydrofolate reductase-thymidylate synthase (Toxoplasma gondii, UniProt Q07422)
# T1 sequence (Q07422 whole entry): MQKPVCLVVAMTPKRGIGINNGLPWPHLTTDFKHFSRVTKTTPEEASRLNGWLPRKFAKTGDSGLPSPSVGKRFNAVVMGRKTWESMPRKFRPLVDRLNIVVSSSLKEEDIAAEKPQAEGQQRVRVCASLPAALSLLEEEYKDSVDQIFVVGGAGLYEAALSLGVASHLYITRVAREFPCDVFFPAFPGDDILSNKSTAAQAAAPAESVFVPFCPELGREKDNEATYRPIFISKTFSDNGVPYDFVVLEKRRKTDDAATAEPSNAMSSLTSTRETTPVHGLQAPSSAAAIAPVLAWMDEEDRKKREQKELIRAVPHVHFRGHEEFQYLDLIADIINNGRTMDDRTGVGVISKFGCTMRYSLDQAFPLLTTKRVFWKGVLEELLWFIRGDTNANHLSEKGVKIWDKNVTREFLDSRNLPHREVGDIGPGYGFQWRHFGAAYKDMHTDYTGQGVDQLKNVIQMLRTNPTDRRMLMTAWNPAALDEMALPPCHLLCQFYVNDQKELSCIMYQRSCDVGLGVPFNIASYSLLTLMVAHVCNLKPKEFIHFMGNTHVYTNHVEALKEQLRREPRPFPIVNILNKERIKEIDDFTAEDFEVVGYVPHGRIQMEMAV
# Test: Inhibition of Toxoplasma gondii Dihydrofolate reductase
row,SMILES,IC50 [µM]
1,Cc1ccc(CSc2ncnc3c2ncn3[C@@H]2C[C@H](CO)[C@@H](O)[C@H]2O)cc1,0.0119
2,CC1(C)N=C(N)N=C(N)N1OCCCOc1ccc(OC(F)(F)F)cc1Cl,0.02
3,O=C(c1ccccc1O)c1[nH]c(Cl)c(Cl)c1-n1c(C(=O)c2ccccc2O)cc(Cl)c1Cl,0.31
4,O=C(c1ccccc1O)c1[nH]c(Cl)c(Cl)c1-n1c(C(=O)c2ccc(Cl)cc2O)cc(Cl)c1Cl,0.16
5,O=C(c1cc(Br)c(F)[nH]1)c1cc(Cl)cc(Cl)c1O,0.17
6,Cc1cc(C)c(O)c(C(=O)c2cc(Br)c(Br)[nH]2)c1,0.09
7,CC[C@@H](C)[C@H]1OC(=O)[C@H](C(C)(C)O)N(C)C(=O)[C@H](CC(C)C)NC(=O)[C@H](C(C)C)N(C)C(=O)[C@H]([C@@H](C)CC)NC(=O)[C@@H]2CCCN2C(=O)[C@H](Cc2ccccc2)N(C)C(=O)[C@H](Cc2ccccc2)NC(=O)[C@H](C(C)C)N(C)C1=O [BASIFUNGIN] (cyclo(F[NMeF]PI[NMeV]L[NMeVal(β-OH)][X1][NMeV])),0.3
8,O=c1cc(-c2cccc3c2Sc2ccccc2S3)oc(N2CCOCC2)c1 [KU-55933],0.00215

# System: Toxoplasma gondii
# Test: Antiparasitic activity against Toxoplasma gondii RH
# Format: functional, organism-based
row,SMILES,IC50
1,Oc1ccc(-c2ccc3c(O)cc(O)cc3[o+]2)cc1,1.08 µg/mL
2,COc1cc(O)c2ccc(-c3ccc(O)cc3)[o+]c2c1,1.48 µg/mL
3,C=CCc1cc(OC)c(O[C@@H](C)[C@H](O)c2ccc(O)c(OC)c2)c(OC)c1,32.4 µg/mL
4,COc1cc(OC)c2ccc(-c3ccc(O)cc3)[o+]c2c1,0.53 µg/mL
5,"C[C@H]1[C@H](C)CC[C@]2(C(=O)Nc3nnn[nH]3)CC[C@]3(C)C(=CC[C@@H]4[C@@]5(C)CCC(=O)C(C)(C)[C@@H]5CC[C@]43C)[C@H]12 (single isomer, unassigned)",219 µM
6,C=C(C)[C@@H]1CC[C@]2(CO)CC[C@]3(C)[C@H](CC[C@@H]4[C@@]5(C)CCC(=O)C(C)(C)[C@@H]5CC[C@]43C)[C@@H]12 [BETULONE],2.7 µM
7,CC1(C)CC[C@]2(C(=O)O)CC[C@]3(C)C(=CC[C@@H]4[C@@]5(C)CC[C@H](O)[C@@](C)(CO)[C@@H]5CC[C@]43C)[C@@H]2C1 [HEDERAGENIN],548 µM
8,C/C=C/c1cc(OC)c2c(c1)[C@@H](C)[C@H](c1ccc3c(c1)OCO3)O2 [LICARINE B],14 µg/mL
9,Oc1cc(O)c2ccc(-c3ccc(O)c(O)c3)[o+]c2c1 [LUTEOLINIDIN],0.66 µg/mL
10,COc1cc(-c2cc(=O)c3c(O)cc(O)cc3o2)cc(OC)c1O [TRICIN],12.9 µg/mL

# System: Toxoplasma gondii
# Test: Antiparasitic activity against Toxoplasma gondii RH tachyzoites infected in human HFF cells assessed as parasitic growth inhibition
# Format: functional, organism-based
row,SMILES,IC50 [µM]
1,COc1ccc2c3ccnc(C)c3n(C)c2c1,1.8
2,O=c1c2ccc(Oc3ccc(OC(F)(F)F)cc3)cc2[nH]c2cc(Cl)cc(F)c12,0.03
3,C=CCC1[C@H](O[Si](C)(C)C(C)(C)C)C[C@@H](C(=O)OC)N1CC=C (stereo not given in full),5.6
4,CC(C)(C)[Si](C)(C)O[C@@H]1C[C@@H](/C=C\I)N2CCCC[C@]12C,3.9
5,C=CCC1[C@H](O[Si](C)(C)C(C)(C)C)C[C@@H](C(=O)OC)N1C(=O)OC(C)(C)C (stereo not given in full),3.9
6,O=C1CCC[C@@H]2[C@H]3CCCN4CCC[C@@H](CN12)[C@@H]34 [MATRINE],1010
7,O=C1CCC[C@@H]2[C@H]3CCC[N+]4([O-])CCC[C@@H](CN12)[C@@H]34 (stereo not given in full) [OXYMATRINE],843
8,O=C1C=C2C=C[C@@H]3C[C@@]2(O1)[C@H]1CCCCN31 [SECURININE],9.8

# Reference: ChEMBL document CHEMBL6078659, “Comprehensive Insights into the Development of Antitoxoplasmosis Drugs: Current Advances, Obstacles, and Future Perspectives” (J Med Chem, 2024)
